Patent EP0019739A1, “2-Aminoalkyl-5-pyridinoles, process for their preparation and pharmaceutical preparations containing them” (CIBA-GEIGY AG, priority 1979, dated 1980)

Experiment: Pharmacological activity, test not specified
Settings: compared with the racemic dihydrochloride (starting material of Example 2) and the levorotatory salt

## CC(C)NC(C)Cc1ccc(O)cn1.Cl.Cl (stereo not shown) [rechtsdrehende Antipode, 2-(2-Isopropylaminopropyl)-5-pyridinol-dihydrochlorid]
  pharmakologisch aktiv: weniger aktiv
